Experiments:
[1] = system: HEK293 cells overexpressing APOL1 G2; assay: APOL1 G2 HEK293 cell rescue assay (reversal of cell death caused by overexpression of APOL1); format: cell-based; conditions: Homo sapiens, HEK293, HEK293 overexpressing APOL1 G2; geometric mean of at least 2 assay runs; † = single assay run
Method: Unless otherwise specified, EC50 values are reported as the geometric mean of at least 2 assay runs on separate days. Each run represents the average of a technical replicate, where each compound was assayed twice in the same plate. A superscript t symbol indicates a value from the average of a technical replicate from a single assay run, where each compound was assayed twice in the same plate. Compounds in Table 40 are referred to by the corresponding Compound Number in Table 1, which is also referred to in the synthetic examples. When one or more of the numbered compounds are identified by stereochemistry (for example, (R)- or (S)-), the specific stereoisomer for which data is provided in Table 40 may be identified by the elution order of such compound as described in the synthetic examples. Absolute stereochemistry of such compounds may be identified by methods known in the art. For Table 40 below, n/a represents “not available”.
Rescue EC50 values reported in Table 40 below represent the half-maximal effective concentration for reversal of cell death caused by overexpression of APOL1.

[2] = system: HEK293 clonal cell line overexpressing APOL1 G1; assay: APOL1 G1 HEK293 cell rescue assay (Example B3); format: cell-based; conditions: Homo sapiens, HEK293, HEK293 clonal line overexpressing APOL1 G1; geometric mean of at least 2 runs; † = single run; ¥ = concentration at 50% rescue estimated (no sigmoidal curve)
Method: Compounds were also assayed in a HEK293 clonal cell line overexpressing APOL1 G1 by a method similar to that shown in Example B2 above.
Unless otherwise specified, EC50 values are reported as the geometric mean of at least 2 assay runs on separate days. Each run represents the average of a technical replicate, where each compound was assayed twice in the same plate. A superscript † symbol indicates a value from the average of a technical replicate from a single assay run, where each compound was assayed twice in the same plate. A ¥ symbol represents compound concentration at 50% rescue estimated due to lack of sigmoidal curve preventing curve fitting. Compounds in Table 41 are referred to by the corresponding Compound Number in Table 1, which is also referred to in the synthetic examples. When one or more of the numbered compounds are identified by stereochemistry (for example, (R)- or (S)-), the specific stereoisomer for which data is provided in Table 41 may be identified by the elution order of such compound as described in the synthetic examples. Absolute stereochemistry of such compounds may be identified by methods known in the art. For Table 41 below, n/a represents “not available”.
Rescue EC50 values reported in Table 41 below represent the half-maximal effective concentration for reversal of cell death caused by overexpression of APOL1.

SMILES | EC50 [1] [nM] | EC50 [2] [nM]
CC1(O)CC(c2ncc(OCCN3CCC4(CC3)C(=O)Nc3ccc(Cl)cc34)cn2)C1 (stereo not drawn) [Compound 373, 5-chloro-1′-(2-{[2-(3-hydroxy-3-methylcyclobutyl)pyrimidin-5-yl]oxy}ethyl)-1,2-dihydrospiro[indole-3,4′-piperidin]-2-one] | 53.4 | 133
C[C@]1(O)C[C@@H](n2c(=O)[nH]c3cc(OCCN4CCC5(CC4)C(=O)Nc4ccc(Cl)cc45)cnc32)C1 [Compound 374, 5-chloro-1′-[2-({2-oxo-3-[(cis)-3-hydroxy-3-methylcyclobutyl]-1H,2H,3H-imidazo[4,5-b]pyridin-6-yl}oxy)ethyl]-1,2-dihydrospiro[indole-3,4′-piperidin]-2-one] | 101 | 216
CC(O)c1ncc(OCCN2CCC3(CC2)C(=O)Nc2ccc(Cl)cc23)cc1C(F)(F)F (stereo not drawn) [Compound 399, 5-chloro-1′-(2-{[6-(1-hydroxyethyl)-5-(trifluoromethyl)pyridin-3-yl]oxy}ethyl)-1,2-dihydrospiro[indole-3,4′-piperidin]-2-one] | 49.8 | 117
CS(=O)(=O)C1(c2ncc(OCCN3CCC4(CC3)C(=O)Nc3c(Cl)cc(Cl)cc34)cn2)CC1 [Compound 400, 5,7-dichloro-1′-(2-{[2-(1-methanesulfonylcyclopropyl)pyrimidin-5-yl]oxy}ethyl)-1,2-dihydrospiro[indole-3,4′-piperidin]-2-one] | 224 | 678
C[C@]1(O)C[C@@H](N2C(=O)CCc3cc(OCCN4CCC5(CC4)C(=O)Nc4c(Cl)cc(Cl)cc45)cnc32)C1 [Compound 409, 5,7-dichloro-1′-[2-({7-oxo-8-[(cis)-3-hydroxy-3-methylcyclobutyl]-5,6,7,8-tetrahydro-1,8-naphthyridin-3-yl}oxy)ethyl]-1,2-dihydrospiro[indole-3,4′-piperidin]-2-one] | 70.2 | 136
[2H]C([2H])([2H])N1C(=O)C2(CCN(CCOc3cnc(C4(S(C)(=O)=O)COC4)nc3)CC2)c2cc(Cl)ccc21 [Compound 422, 5-chloro-1′-(2-{[2-(3-methanesulfonyloxetan-3-yl)pyrimidin-5-yl]oxy}ethyl)-1-(^2H3)methyl-1,2-dihydrospiro[indole-3,4′-piperidin]-2-one] | 63.5 | 165
CC1(O)CC(n2ncc3cc(OCCN4CCC5(CC4)C(=O)Nc4ccc(C#N)cc45)cnc32)C1 (stereo not drawn) [Compound 436, 1′-(2-{[1-(3-hydroxy-3-methylcyclobutyl)-1H-pyrazolo[3,4-b]pyridin-5-yl]oxy}ethyl)-2-oxo-1,2-dihydrospiro[indole-3,4′-piperidine]-5-carbonitrile] | 80.1 | 114
C[C@]1(O)C[C@H](n2ncc3cc(OCCN4CCC5(CC4)C(=O)Nc4ccc(C#N)cc45)cnc32)C1 [Compound 438, 2-oxo-1′-[2-({1-[(trans)-3-hydroxy-3-methylcyclobutyl]-1H-pyrazolo[3,4-b]pyridin-5-yl}oxy)ethyl]-1,2-dihydrospiro[indole-3,4′-piperidine]-5-carbonitrile] | 204 | 242
CS(=O)(=O)N1CCC(c2ccc(OCCN3CCC4(CC3)C(=O)Nc3ccc(Cl)cc34)cc2)CC1 [Compound 444, 5-chloro-1′-{2-[4-(1-methanesulfonylpiperidin-4-yl)phenoxy]ethyl}-1,2-dihydrospiro[indole-3,4′-piperidin]-2-one] | 22.4 | 72.3
CC(C)(O)CN1C(=O)CCc2cc(OCCN3CCC4(CC3)C(=O)Nc3ccc(Cl)cc34)cnc21 [Compound 452, 5-chloro-1′-(2-{[8-(2-hydroxy-2-methylpropyl)-7-oxo-5,6,7,8-tetrahydro-1,8-naphthyridin-3-yl]oxy}ethyl)-1,2-dihydrospiro[indole-3,4′-piperidin]-2-one] | 28.2 | 84.4
C[C@]1(O)C[C@@H](N2C(=O)NCc3cc(OCCN4CCC5(CC4)C(=O)Nc4ccc(C#N)cc45)cc(C(F)(F)F)c32)C1 [Compound 457, 2-oxo-1′-[2-({2-oxo-1-[(cis)-3-hydroxy-3-methylcyclobutyl]-8-(trifluoromethyl)-1,2,3,4-tetrahydroquinazolin-6-yl}oxy)ethyl]-1,2-dihydrospiro[indole-3,4′-piperidine]-5-carbonitrile] | 278 | > 3300
C[C@]1(O)C[C@@H](n2cnc3nc(OCCN4CCC5(CC4)C(=O)Nc4ccc(Cl)cc45)cc(C(F)(F)F)c32)C1 [Compound 471, 5-chloro-1′-[2-({1-[(cis)-3-hydroxy-3-methylcyclobutyl]-7-(trifluoromethyl)-1H-imidazo[4,5-b]pyridin-5-yl}oxy)ethyl]-1,2-dihydrospiro[indole-3,4′-piperidin]-2-one] | > 3300 | > 3300

— patent US12344610B2, “APOL1 inhibitors and methods of use” (Maze Therapeutics, Inc., priority 2022, dated 2025)
